Assays:
[1] = target: T1, Type-2 angiotensin II receptor (Homo sapiens, UniProt P50052); assay type: cell-based; conditions: cho-k1; note: in other assays of this panel Not Active means under 50% inhibition at 10 µM
T1 sequence (P50052 whole entry): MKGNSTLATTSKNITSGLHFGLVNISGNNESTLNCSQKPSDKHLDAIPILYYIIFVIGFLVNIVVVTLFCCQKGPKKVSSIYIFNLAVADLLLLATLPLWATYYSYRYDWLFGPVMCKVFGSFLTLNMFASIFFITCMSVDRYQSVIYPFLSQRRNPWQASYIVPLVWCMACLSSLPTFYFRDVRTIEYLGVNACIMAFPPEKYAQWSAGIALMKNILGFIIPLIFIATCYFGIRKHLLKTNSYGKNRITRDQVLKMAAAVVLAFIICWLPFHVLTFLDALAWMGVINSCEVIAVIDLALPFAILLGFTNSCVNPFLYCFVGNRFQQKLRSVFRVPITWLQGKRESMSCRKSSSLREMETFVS

Nitric oxide synthase 1 = Nitric oxide synthase 1 (Rattus norvegicus, UniProt P29476); assay type: tissue-based, Cerebellum; note: in other assays of this panel Not Active means under 50% inhibition at 10 µM
[2] = target: Kappa-type opioid receptor (Homo sapiens, UniProt P41145); test: DRUGMATRIX: Opiate kappa (OP2, KOP) radioligand binding (ligand: [3H] Diprenorphine); assay type: cell membranes, HEK293, Membrane; conditions: hek293; Not Active = under 50% inhibition at 10 µM
[3] = DRUGMATRIX: Phorbol Ester radioligand binding (ligand: [3H] PDBu); assay type: cell membranes, Mus musculus, ICR, Brain, Membrane; conditions: Not Active = under 50% inhibition at 10 µM
[4] = DRUGMATRIX: Phosphodiesterase PDE4 enzyme inhibition (substrate: [3H]cAMP + cAMP); conditions: u-937; Not Active = under 50% inhibition at 10 µM
[5] = target: Mitogen-activated protein kinase 1 (Homo sapiens, UniProt P28482); test: DRUGMATRIX: Protein Serine/Threonine Kinase, ERK2 enzyme inhibition (substrate: Myelin Basic Protein); set-up: species or system Escherichia coli; conditions: Not Active = under 50% inhibition at 10 µM
[6] = target: Receptor tyrosine-protein kinase erbB-2 (Homo sapiens, UniProt P04626); test: biochemical; assay type: cell-based, Insect cells; conditions: insect cells;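 note: inhibition of HER2 kinase enzyme activity, measured with Poly(Glu:Tyr) as the phosphorylation substrate; in other assays of this panel Not Active means under 50% inhibition at 10 µM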
Cytochrome P450 2A6 = target: T2, Cytochrome P450 2A6 (Homo sapiens, UniProt P11509); conditions: bti-tn-5b1-4; note: in other assays of this panel Not Active means under 50% inhibition at 10 µM
T2 sequence (P11509 whole entry): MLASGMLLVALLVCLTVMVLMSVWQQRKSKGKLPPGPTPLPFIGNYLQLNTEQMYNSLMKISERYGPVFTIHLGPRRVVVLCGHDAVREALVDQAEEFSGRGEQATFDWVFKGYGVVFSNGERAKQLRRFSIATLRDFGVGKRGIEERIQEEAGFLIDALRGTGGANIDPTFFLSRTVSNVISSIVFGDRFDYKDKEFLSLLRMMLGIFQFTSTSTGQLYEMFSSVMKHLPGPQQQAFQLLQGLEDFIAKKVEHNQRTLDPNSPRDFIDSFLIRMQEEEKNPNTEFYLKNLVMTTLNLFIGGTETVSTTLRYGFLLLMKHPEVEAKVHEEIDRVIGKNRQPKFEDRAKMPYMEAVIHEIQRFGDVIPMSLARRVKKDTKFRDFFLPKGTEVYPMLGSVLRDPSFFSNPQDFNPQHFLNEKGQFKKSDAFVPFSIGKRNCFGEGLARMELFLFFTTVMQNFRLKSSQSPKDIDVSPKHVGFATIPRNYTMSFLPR

Chain of Kappa-type opioid receptor (P41145 whole entry): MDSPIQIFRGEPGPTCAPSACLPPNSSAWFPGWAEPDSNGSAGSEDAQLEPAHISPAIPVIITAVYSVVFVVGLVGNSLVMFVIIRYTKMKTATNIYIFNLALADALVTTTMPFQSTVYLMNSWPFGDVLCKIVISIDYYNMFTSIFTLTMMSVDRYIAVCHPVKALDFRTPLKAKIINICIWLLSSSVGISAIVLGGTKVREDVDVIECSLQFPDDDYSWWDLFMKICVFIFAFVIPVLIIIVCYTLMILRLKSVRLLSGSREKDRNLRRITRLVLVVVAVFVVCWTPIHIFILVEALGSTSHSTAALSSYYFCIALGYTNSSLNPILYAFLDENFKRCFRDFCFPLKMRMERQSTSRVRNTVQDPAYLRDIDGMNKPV
Chain of Nitric oxide synthase 1 (P29476 whole entry): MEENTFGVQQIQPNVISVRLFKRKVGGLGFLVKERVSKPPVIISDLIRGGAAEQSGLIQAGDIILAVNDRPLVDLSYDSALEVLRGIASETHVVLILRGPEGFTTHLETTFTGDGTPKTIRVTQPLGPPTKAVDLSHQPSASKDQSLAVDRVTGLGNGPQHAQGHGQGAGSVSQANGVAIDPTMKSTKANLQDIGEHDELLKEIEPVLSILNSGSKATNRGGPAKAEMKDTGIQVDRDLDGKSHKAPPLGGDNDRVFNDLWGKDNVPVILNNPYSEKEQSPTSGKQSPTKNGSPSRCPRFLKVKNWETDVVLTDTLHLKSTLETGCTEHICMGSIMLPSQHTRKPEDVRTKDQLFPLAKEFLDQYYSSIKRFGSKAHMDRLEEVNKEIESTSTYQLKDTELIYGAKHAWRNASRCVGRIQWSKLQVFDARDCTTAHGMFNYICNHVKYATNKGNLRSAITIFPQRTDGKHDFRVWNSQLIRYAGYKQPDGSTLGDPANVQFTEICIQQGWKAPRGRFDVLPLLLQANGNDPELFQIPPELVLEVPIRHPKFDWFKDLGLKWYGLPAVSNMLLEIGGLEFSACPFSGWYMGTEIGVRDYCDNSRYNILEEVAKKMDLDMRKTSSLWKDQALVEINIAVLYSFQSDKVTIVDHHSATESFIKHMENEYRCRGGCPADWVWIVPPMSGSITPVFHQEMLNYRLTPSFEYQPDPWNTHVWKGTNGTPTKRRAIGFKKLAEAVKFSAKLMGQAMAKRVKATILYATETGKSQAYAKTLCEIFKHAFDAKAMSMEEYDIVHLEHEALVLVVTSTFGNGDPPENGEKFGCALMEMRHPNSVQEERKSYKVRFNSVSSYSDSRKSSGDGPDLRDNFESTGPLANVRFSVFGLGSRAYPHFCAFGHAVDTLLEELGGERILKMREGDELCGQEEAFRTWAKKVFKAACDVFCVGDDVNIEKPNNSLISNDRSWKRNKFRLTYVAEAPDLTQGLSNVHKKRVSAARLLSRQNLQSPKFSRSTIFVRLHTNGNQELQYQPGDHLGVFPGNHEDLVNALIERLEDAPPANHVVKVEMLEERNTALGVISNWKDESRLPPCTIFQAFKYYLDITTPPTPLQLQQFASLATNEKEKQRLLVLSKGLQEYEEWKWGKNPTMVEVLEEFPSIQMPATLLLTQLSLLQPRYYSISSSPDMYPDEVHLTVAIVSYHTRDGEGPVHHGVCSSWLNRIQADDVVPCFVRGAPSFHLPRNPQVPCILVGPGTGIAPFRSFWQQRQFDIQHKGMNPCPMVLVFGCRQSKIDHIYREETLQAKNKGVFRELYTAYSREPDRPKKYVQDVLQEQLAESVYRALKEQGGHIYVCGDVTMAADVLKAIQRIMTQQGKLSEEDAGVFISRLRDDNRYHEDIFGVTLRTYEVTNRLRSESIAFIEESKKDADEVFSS
Chain of Mitogen-activated protein kinase 1 (P28482 whole entry): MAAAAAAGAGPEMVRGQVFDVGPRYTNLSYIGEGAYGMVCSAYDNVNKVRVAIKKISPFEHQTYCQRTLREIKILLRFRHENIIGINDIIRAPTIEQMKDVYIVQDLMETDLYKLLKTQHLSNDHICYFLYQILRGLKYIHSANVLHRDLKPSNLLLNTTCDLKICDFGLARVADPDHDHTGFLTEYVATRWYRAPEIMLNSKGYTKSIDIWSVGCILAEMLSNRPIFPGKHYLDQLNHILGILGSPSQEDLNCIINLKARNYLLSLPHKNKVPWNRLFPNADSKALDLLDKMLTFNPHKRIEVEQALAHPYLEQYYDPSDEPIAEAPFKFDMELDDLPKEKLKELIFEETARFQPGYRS
Chain of Receptor tyrosine-protein kinase erbB-2 (P04626 whole entry): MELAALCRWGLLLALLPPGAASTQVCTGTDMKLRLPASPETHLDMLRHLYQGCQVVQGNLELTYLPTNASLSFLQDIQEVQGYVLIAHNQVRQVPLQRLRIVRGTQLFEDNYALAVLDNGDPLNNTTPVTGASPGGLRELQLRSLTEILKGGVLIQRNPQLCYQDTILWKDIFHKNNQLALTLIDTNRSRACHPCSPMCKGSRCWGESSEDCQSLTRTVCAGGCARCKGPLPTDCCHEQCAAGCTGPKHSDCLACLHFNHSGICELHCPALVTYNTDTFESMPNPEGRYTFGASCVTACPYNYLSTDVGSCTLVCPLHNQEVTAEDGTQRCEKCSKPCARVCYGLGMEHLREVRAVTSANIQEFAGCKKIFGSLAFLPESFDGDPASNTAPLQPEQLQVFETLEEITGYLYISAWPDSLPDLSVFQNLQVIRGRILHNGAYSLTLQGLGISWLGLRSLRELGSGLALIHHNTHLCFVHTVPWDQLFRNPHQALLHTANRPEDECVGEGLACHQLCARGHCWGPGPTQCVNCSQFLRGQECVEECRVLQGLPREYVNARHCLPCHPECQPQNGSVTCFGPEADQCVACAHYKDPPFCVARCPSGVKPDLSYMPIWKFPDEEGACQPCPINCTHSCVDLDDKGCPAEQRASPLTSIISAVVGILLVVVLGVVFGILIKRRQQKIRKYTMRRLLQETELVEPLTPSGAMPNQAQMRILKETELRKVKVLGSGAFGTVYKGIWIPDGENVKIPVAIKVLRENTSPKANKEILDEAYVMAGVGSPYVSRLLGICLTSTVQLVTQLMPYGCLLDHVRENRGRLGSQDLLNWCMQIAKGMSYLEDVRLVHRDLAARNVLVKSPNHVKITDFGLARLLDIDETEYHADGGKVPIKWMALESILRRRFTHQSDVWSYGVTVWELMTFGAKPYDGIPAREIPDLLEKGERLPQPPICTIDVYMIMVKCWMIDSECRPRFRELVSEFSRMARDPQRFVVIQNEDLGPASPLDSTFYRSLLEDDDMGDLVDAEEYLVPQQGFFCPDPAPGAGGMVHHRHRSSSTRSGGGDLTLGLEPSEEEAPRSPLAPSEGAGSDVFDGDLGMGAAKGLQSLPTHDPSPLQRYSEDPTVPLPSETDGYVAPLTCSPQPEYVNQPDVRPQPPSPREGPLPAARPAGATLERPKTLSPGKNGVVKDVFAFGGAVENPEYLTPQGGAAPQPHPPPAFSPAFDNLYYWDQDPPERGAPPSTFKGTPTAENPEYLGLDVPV

C[C@H](CCC(=O)O)[C@H]1CC[C@H]2[C@@H]3[C@H](O)C[C@@H]4C[C@H](O)CC[C@]4(C)[C@H]3C[C@H](O)[C@]12C [CHOLIC ACID]
Not Active: IC50 [1] | IC50 (Nitric oxide synthase 1) | IC50 [2] | IC50 [3] | Ki [3] | IC50 [4] | Ki [4] | IC50 [5] | IC50 [6] | IC50 (Cytochrome P450 2A6) | Ki (Cytochrome P450 2A6)

CC(C)C(Br)C(=O)NC(N)=O (stereo unspecified) [BROMISOVALUM]
Not Active: IC50 [1] | IC50 (Nitric oxide synthase 1) | IC50 [2] | IC50 [3] | Ki [3] | IC50 [4] | Ki [4] | IC50 [5] | IC50 [6] | IC50 (Cytochrome P450 2A6) | Ki (Cytochrome P450 2A6)

C[C@H]1c2cccc(O)c2C(=O)C2=C(O)[C@]3(O)C(=O)C(C(N)=O)=C(O)[C@@H](N(C)C)[C@@H]3[C@@H](O)[C@@H]21.O [DOXYCYCLINE]
Not Active: IC50 [1] | IC50 (Nitric oxide synthase 1) | IC50 [2] | IC50 [3] | Ki [3] | IC50 [4] | Ki [4] | IC50 [5] | IC50 [6] | IC50 (Cytochrome P450 2A6) | Ki (Cytochrome P450 2A6)

CNCCCN1c2ccccc2CCc2ccccc21 [DESIPRAMINE]
Not Active: IC50 [1] | IC50 (Nitric oxide synthase 1) | IC50 [2] | IC50 [3] | Ki [3] | IC50 [4] | Ki [4] | IC50 [5] | IC50 [6] | IC50 (Cytochrome P450 2A6) | Ki (Cytochrome P450 2A6)

C[C@H](CS)C(=O)N1CCC[C@H]1C(=O)O [CAPTOPRIL]
Not Active: IC50 [1] | IC50 (Nitric oxide synthase 1) | IC50 [2] | IC50 [3] | Ki [3] | IC50 [4] | Ki [4] | IC50 [5] | IC50 [6] | IC50 (Cytochrome P450 2A6) | Ki (Cytochrome P450 2A6)

CC(O)CO (stereo unspecified) [PROPYLENE GLYCOL]
Not Active: IC50 [1] | IC50 (Nitric oxide synthase 1) | IC50 [2] | IC50 [3] | Ki [3] | IC50 [4] | Ki [4] | IC50 [5] | IC50 [6] | IC50 (Cytochrome P450 2A6) | Ki (Cytochrome P450 2A6)

Cc1c(O)c(=O)ccn1C [DEFERIPRONE]
Not Active: IC50 [1] | IC50 (Nitric oxide synthase 1) | IC50 [2] | IC50 [3] | Ki [3] | IC50 [4] | Ki [4] | IC50 [5] | IC50 [6] | IC50 (Cytochrome P450 2A6) | Ki (Cytochrome P450 2A6)

CC(C)[C@@]1(NC(=O)[C@@H]2C[C@@H]3c4cccc5[nH]cc(c45)C[C@H]3N(C)C2)O[C@@]2(O)[C@@H]3CCCN3C(=O)[C@H](Cc3ccccc3)N2C1=O.CS(=O)(=O)O [DIHYDROERGOCRISTINE MESYLATE]
Not Active: IC50 [1] | IC50 (Nitric oxide synthase 1) | IC50 [2] | IC50 [3] | Ki [3] | IC50 [4] | Ki [4] | IC50 [5] | IC50 [6] | IC50 (Cytochrome P450 2A6) | Ki (Cytochrome P450 2A6)

C1CCC(C(CC2CCCCN2)C2CCCCC2)CC1 (stereo unspecified) [PERHEXILINE]
Not Active: IC50 [1] | IC50 (Nitric oxide synthase 1) | IC50 [2] | IC50 [3] | Ki [3] | IC50 [4] | Ki [4] | IC50 [5] | IC50 [6] | IC50 (Cytochrome P450 2A6) | Ki (Cytochrome P450 2A6)

c1ccc2c(c1)c1cccc3ccc4cccc2c4c31 [BENZO[E]PYRENE]
Not Active: IC50 [1] | IC50 (Nitric oxide synthase 1) | IC50 [2] | IC50 [3] | Ki [3] | IC50 [4] | Ki [4] | IC50 [5] | IC50 [6] | IC50 (Cytochrome P450 2A6) | Ki (Cytochrome P450 2A6)

CNCCc1ccccn1 [BETAHISTINE]
Not Active: IC50 [1] | IC50 (Nitric oxide synthase 1) | IC50 [2] | IC50 [3] | Ki [3] | IC50 [4] | Ki [4] | IC50 [5] | IC50 [6] | IC50 (Cytochrome P450 2A6) | Ki (Cytochrome P450 2A6)

Cc1ccccc1N1C(=O)c2cc(S(N)(=O)=O)c(Cl)cc2NC1C (stereo unspecified) [METOLAZONE]
Not Active: IC50 [1] | IC50 (Nitric oxide synthase 1) | IC50 [2] | IC50 [3] | Ki [3] | IC50 [4] | Ki [4] | IC50 [5] | IC50 [6] | IC50 (Cytochrome P450 2A6) | Ki (Cytochrome P450 2A6)

O=C1CC[C@@H](N2C(=O)c3ccccc3C2=O)C(=O)N1
Not Active: IC50 [1] | IC50 (Nitric oxide synthase 1) | IC50 [2] | IC50 [3] | Ki [3] | IC50 [4] | Ki [4] | IC50 [5] | IC50 [6] | IC50 (Cytochrome P450 2A6) | Ki (Cytochrome P450 2A6)

Nc1nc2c(ncn2COCCO)c(=O)[nH]1 [ACYCLOVIR]
Not Active: IC50 [1] | IC50 (Nitric oxide synthase 1) | IC50 [2] | IC50 [3] | Ki [3] | IC50 [4] | Ki [4] | IC50 [5] | IC50 [6] | IC50 (Cytochrome P450 2A6) | Ki (Cytochrome P450 2A6)

CN(C)CCCN1c2ccccc2Sc2ccccc21 [PROMAZINE]
Not Active: IC50 [1] | IC50 (Nitric oxide synthase 1) | IC50 [2] | IC50 [3] | Ki [3] | IC50 [4] | Ki [4] | IC50 [5] | IC50 [6] | IC50 (Cytochrome P450 2A6) | Ki (Cytochrome P450 2A6)

CC1(C)O[C@@H]2C[C@H]3[C@@H]4CCC5=CC(=O)CC[C@]5(C)[C@@]4(F)[C@@H](O)C[C@]3(C)[C@]2(C(=O)CCl)O1 [HALCINONIDE]
Not Active: IC50 [1] | IC50 (Nitric oxide synthase 1) | IC50 [2] | IC50 [3] | Ki [3] | IC50 [4] | Ki [4] | IC50 [5] | IC50 [6] | IC50 (Cytochrome P450 2A6) | Ki (Cytochrome P450 2A6)

CC1CC(OC(=O)C(O)c2ccccc2)CC(C)(C)C1 (stereo unspecified) [CYCLANDELATE]
Not Active: IC50 [1] | IC50 (Nitric oxide synthase 1) | IC50 [2] | IC50 [3] | Ki [3] | IC50 [4] | Ki [4] | IC50 [5] | IC50 [6] | IC50 (Cytochrome P450 2A6) | Ki (Cytochrome P450 2A6)

Sc1ncnc2nc[nH]c12 [MERCAPTOPURINE ANHYDROUS]
Not Active: IC50 [1] | IC50 (Nitric oxide synthase 1) | IC50 [2] | IC50 [3] | Ki [3] | IC50 [4] | Ki [4] | IC50 [5] | IC50 [6] | IC50 (Cytochrome P450 2A6) | Ki (Cytochrome P450 2A6)

O=c1[nH]c(=O)n([C@H]2C[C@H](O)[C@@H](CO)O2)cc1I [IDOXURIDINE]
Not Active: IC50 [1] | IC50 (Nitric oxide synthase 1) | IC50 [2] | IC50 [3] | Ki [3] | IC50 [4] | Ki [4] | IC50 [5] | IC50 [6] | IC50 (Cytochrome P450 2A6) | Ki (Cytochrome P450 2A6)

Cc1c(C)c2c(c(C)c1O)CC[C@@](C)(CCC[C@H](C)CCC[C@H](C)CCCC(C)C)O2 [ALPHA-TOCOPHEROL]
Not Active: IC50 [1] | IC50 (Nitric oxide synthase 1) | IC50 [2] | IC50 [3] | Ki [3] | IC50 [4] | Ki [4] | IC50 [5] | IC50 [6] | IC50 (Cytochrome P450 2A6) | Ki (Cytochrome P450 2A6)

CC[C@@]1(O)C[C@H](O[C@H]2C[C@H](N(C)C)[C@H](O[C@H]3C[C@H](O)[C@H](O[C@H]4CCC(=O)[C@H](C)O4)[C@H](C)O3)[C@H](C)O2)c2c(cc3c(c2O)C(=O)c2c(O)cccc2C3=O)[C@H]1C(=O)OC [ACLARUBICIN]
Not Active: IC50 [1] | IC50 (Nitric oxide synthase 1) | IC50 [2] | IC50 [3] | Ki [3] | IC50 [4] | Ki [4] | IC50 [5] | IC50 [6] | IC50 (Cytochrome P450 2A6) | Ki (Cytochrome P450 2A6)
